{"source": "patent US8158621B2", "about": "“Methods of treating or preventing autoimmune diseases with 2,4-pyrimidinediamine compounds” (Rigel Pharmaceuticals, Inc., priority 2002, dated 2012)", "key": {"[1]": {"test_system": "CHMC cells", "assay": "anti-IgE-induced Ca2+ flux in CHMC cells", "assay_type": "cell-based, human", "settings": "10 μM"}, "[2]": {"assay": "14-day repeat-dose intranasal toxicity study in Cynomolgus monkeys", "assay_type": "in vivo", "settings": "14-day intranasal", "method": "A 14-day repeat-dose intranasal toxicity study in Cynomolgus monkeys was performed at doses of 2.1, 4.5 or 6.3 mg/kg/day. In life parameters included: clinical observations, body weights, food consumption, ophthalmology, blood pressure, electrocardiography, hematology, clinical chemistry, urinalysis, immunotoxicological assessment, gross necropsy, organ weights, toxicokinetic assessments and histopathology (including the nasal cavity)."}, "[3]": {"assay": "14-day repeat-dose intranasal toxicity study in New Zealand White rabbits", "assay_type": "in vivo", "settings": "14-day intranasal", "method": "A 14-day repeat-dose intranasal toxicity study in New Zealand White rabbits was performed at doses of 1.7, 3.4 or 5.0 mg/kg/day. In life parameters included: clinical observations, body weights, food consumption, ophthalmology, hematology, clinical chemistry, gross necropsy, organ weights, toxicokinetic assessments and histopathology (including the nasal cavity)."}, "[4]": {"test_system": "basophil cells (human peripheral blood)", "assay": "Basophil dustmite activation: histamine release assay", "assay_type": "cell-based", "settings": "basophils, dust mite activation", "method": "The basophil activation assay was carried out using whole human peripheral blood from donors allergic to dust mites with the majority of the red blood cells removed by dextran sedimentation. Human peripheral blood was mixed 1:1 with 3% dextran T500 and RBCs were allowed to settle for 20-25min. The upper fraction was diluted with 3 volumes of D-PBS and cells were spun down for 10 min at 1500 rpm, RT. Supernatant was aspirated and cells were washed in an equal volume MT-buffer. Finally, cells were resuspended in MT-buffer containing 0.5% DMSO in the original blood volume. 80 uL cells were mixed with 20 uL compound in the presence of 0.5% DMSO, in triplicate, in a V-bottom 96-well tissue culture plate. A dose range of 8 compound concentrations was tested resulting in a 10-point dose response curve including maximum (stimulated) and minimum (unstimulated) response. […] The cells were stimulated for 30 minutes at 37° C., 5% CO2. The plate was spun for 10 min at 1500 rpm at room temperature and 80 uL the supernatant was harvested for histamine content analysis using the histamine ELISA kit supplied by Immunotech. The ELISA was performed according to supplier's instructions."}, "[5]": {"assay": "Mouse model of allergic asthma (ovalbumin)", "assay_type": "in vivo", "settings": "intranasal, 10 consecutive days (Day 7 through Day 16), 20 mg/kg", "description": "Mice are sensitized to ovalbumin (chicken protein) in the presence of an adjuvant (Alum) by the intraperitoneal route on day 0 and day 7. One week later, mice are challenged intranasally with ovalbumin on Days 14, 15 and 16 (more stringent model) or on Day 14 (less stringent model). This sensitization and challenge regimen leads to airway hyperresponsiveness and inflammation in the lungs, which are two dominant characteristics of human allergic asthma. In the mouse model, the in vivo airway responses are measured using a whole body plethysmograph which determines the PENH (enhanced Pause, Buxco Electronics). The PENH is a dimensionless value comprised of the peak inspiratory flow (PIF), peak expiratory flow (PEF), time of inspiration, time of expiration and relaxation time, and is considered a validated parameter of airway responsiveness. Responses to allergen challenge (OVA) are compared with animals challenged with saline only. Twenty-four hours after challenge, mice are exposed to increasing doses of methacholine (muscarinic receptor agonist) which results in smooth muscle contraction. […] In addition, a cellular infiltrate in the airway is observed in ovalbumin challenged mice when compared with the saline challenged mice. This cellular infiltrate is mainly characterized by eosinophils, but a smaller influx of neutrophils and mononuclear cells is also present. […]"}, "[6]": {"assay_type": "in vivo", "settings": "rat, 32 days"}, "[7]": {"assay": "Oral bioavailability / pharmacokinetics in rats", "settings": "rat, in vivo", "method": "Over 50 2,4-pyrimidinediamine compounds of the invention were tested for oral bioavailability. For the study, compounds were dissolved in various vehicles (e.g. PEG 400 solution and CMC suspension) for intravenous and oral dosing in the rats. Following administration of the drug, plasma samples were obtained and extracted. The plasma concentrations of the compounds were determined by high performance liquid chromatography/tandem mass spectrometry (LC/MS/MS) methods. Pharmacokinetic analyses were performed based on the plasma concentration data. The pharmacokinetic parameters of interest include Clearance (CL), Volume of distribution at steady-state (Vss), terminal half-life (t1/2), and oral bioavailability (% F)."}, "[8]": {"assay": "Mouse experimental autoimmune encephalomyelitis (EAE)", "assay_type": "in vivo", "settings": "for mice relapsed: from day of immunization", "method": "In the SJL murine model of EAE, each mouse is sensitized with PLP/CFA. […] In a treatment protocol, at onset of disease, animals are separated to achieve groups with a similar mean clinical score at onset and administered vehicle or various dose frequencies of test articles via oral gavage. In both protocols, clinical scores are monitored daily, and body weights are measured twice weekly."}, "[9]": {"assay": "Mouse collagen antibody-induced arthritis (CAIA)", "assay_type": "in vivo, Balb/c mice", "method": "Arthrogen-CIA® Arthritis-inducing Monoclonal Antibody Cocktail (Chemicon International Inc.) is administered intravenously to Balb/c mice (2mg/mouse) on Day 0. Forty-eight hours later, 100 μl of LPS (25 μg) is injected intraperitoneally. On Day 4, toes may appear swollen. By Day 5, one or two paws (particular the hind legs) begin to appear red and swollen. On Day 6, and thereafter, red and swollen paws will remain for at least 1-2 weeks. During the study, the clinical signs of inflammation are scored to evaluate the intensity of edema in the paws. The severity of arthritis is recorded as the sum score of both hind paws for each animal (possible maximum score of 8). The degree of inflammation with involved paws is evaluated by measurement of diameter of the paws. Body weight changes are monitored.\nAnimals are treated at the time of induction of arthritis, beginning on Day 0. Test compounds and control compounds are administered once a day (q.d.) or twice a day (b.i.d.), via per os (PO), depending on previously established PK profiles.\nAt the end of the study (1-2 weeks after induction of arthritis), mice are euthanized and the paws are transected at the distal tibia using a guillotine and weighed. The mean±standard error of the mean (SEM) for each group is determined each day from individual animal clinical scores, and hind paw weights for each experimental group are calculated and recorded at study termination. Histopathological evaluation of paws are obtained."}, "[10]": {"settings": "100 mg/kg 1x/day starting on day of immunization"}, "[11]": {"settings": "100 mg/kg 2x/day starting on day of immunization"}, "[12]": {"settings": "200 mg/kg 2x/day starting on day of onset"}}, "note": "Several values for one entry are separate records, joined by “and”; a condition that tells them apart may be missing. Equal values may be shown once. Marks after values point to notes of the source that are not given here.", "data": [{"smiles": "Oc1cccc(Nc2ncc(F)c(Nc3cccc(O)c3)n2)c1", "note": "[Compound R921218]", "values": [{"measurement": "anti-IgE-induced Ca2+ flux", "setting": "[1]", "value": "inhibited"}, {"measurement": "NOAEL (no observed adverse effect level)", "setting": "[2]", "value": 6.3, "unit": "mg/kg/day"}, {"measurement": "NOAEL (no observed adverse effect level)", "setting": "[3]", "value": 5.0, "unit": "mg/kg/day"}, {"measurement": "IC50", "setting": "[4]", "value": 302, "unit": "nM"}]}, {"smiles": "CNC(=O)COc1cccc(Nc2ncc(F)c(Nc3ccc4c(n3)NC(=O)CO4)n2)c1", "note": "[Compound R921304]", "values": [{"measurement": "ovalbumin-induced airway hyperresponsiveness to methacholine", "setting": "[5]", "value": "able to inhibit"}]}, {"smiles": "Nc1cccc(Nc2ncc(F)c(Nc3cccc(N)c3)n2)c1", "note": "[Compound R921302]", "values": [{"measurement": "tolerability, oral doses of 50, 150 and 300 mg/kg", "setting": "[6]", "value": "well tolerated"}, {"measurement": "metabolic stability in pharmacokinetics study", "setting": "[7]", "value": "most metabolically stable compound"}, {"measurement": "Incidence", "setting": "[8]; [10]", "value": "10/10"}, {"measurement": "Mortality", "setting": "[8]; [10]", "value": "0/10"}, {"measurement": "Onset", "setting": "[8]; [10]", "value": "12.3 ± 0.7"}, {"measurement": "Peak (mean clinical score)", "setting": "[8]; [10]", "value": "4.3+1.3 and 4.3 ± 1.3"}, {"measurement": "Incidence", "setting": "[8]; [11]", "value": "10/10"}, {"measurement": "Mortality", "setting": "[8]; [11]", "value": "3/10^a"}, {"measurement": "Onset", "setting": "[8]; [11]", "value": "13.0 ± 1.2^b"}, {"measurement": "Peak (mean clinical score)", "setting": "[8]; [11]", "value": "4.3+1.4 and 4.3 ± 1.4"}, {"measurement": "mice relapsed", "setting": "[8]; 100 mg/kg twice daily group", "value": "None"}, {"measurement": "mice relapsed", "setting": "[8]; 100 mg/kg/day group", "value": "3/8"}, {"measurement": "Incidence", "setting": "[8]; [12]", "value": "12/12"}, {"measurement": "Mean score at treatment", "setting": "[8]; [12]", "value": "3.4 ± 1.6"}, {"measurement": "Mortality", "setting": "[8]; [12]", "value": "1/12"}, {"measurement": "Peak", "setting": "[8]; [12]", "value": "4.3 ± 0.7"}, {"measurement": "Relapses", "setting": "[8]; [12]", "value": "2/12"}, {"measurement": "Group Average Histopathological Score (0-15), average total score ± SD", "setting": "[9]; 100 mg/kg, twice daily", "value": "5.1 ± 1.9"}, {"measurement": "reduction of paw weight compared with vehicle control group", "setting": "[9]; end of study", "value": 99.9, "unit": "%"}, {"measurement": "histopathological evaluation of the resected paws", "setting": "[9]; mouse, in vivo", "value": "lesions of lesser severity"}]}]}
